Earlier results, collected in patent US20220323523A1, “METHOD AND APPARATUS FOR THE INFUSION OF CA[…] A SHELF-STABLE FOOD COMPOSITION” (priority 2019, published 2022).

Details: rats; for enhancement of exposure by co-administration of lipids compared to lipid-free formulations: co-administration of lipids vs lipid-free formulations

Row | Structure (SMILES) | enhancement of exposure by co-administration of lipids compared to lipid-free formulations [fold] | enhancement of bioavailability by co-administration of cannabinoids with lipids
1 | CCCCCc1cc(O)c2c(c1)OC(C)(C)[C@@H]1CCC(C)=C[C@@H]21 [THC, Tetrahydrocannabinol] | 2.5 | more than 2.5 fold
2 | C=C(C)[C@@H]1CCC(C)=C[C@H]1c1c(O)cc(CCCCC)cc1O [CBD, Cannabidiol] | 3 | ~3 fold
